# Test system: adult S. mansoni
# Assay: In vitro drug sensitivity assay on adult S. mansoni (microscopic viability scoring)
# Type: cell-based, Schistosoma mansoni
# Conditions: 10 µM, 24 h, in percentage of DMSO control
# Protocol: Figure 3 In vitro activity at 50 µM of the 12 compounds on adult S. mansoni. Adult schistosomes were incubated in culture media for 72 h at 37 °C and 5% CO2 with either compound (50 µM) or a DMSO (0.5%) control. The viability of the worms was microscopically evaluated and scored (0—3, in 0.5 steps) every 24 h. Results are from two independent experiments, each performed in duplicate. Drug activities were normalized to the DMSO controls. Data represent mean ± SD in percentage of DMSO control. […]
# In vitro evaluation on adult S. mansoni
# After a week for acclimatization to the new environment with controlled conditions (temperature: 22 °C ± 2 °C, humidity: 50 % ± 10 %, 12:12 h light/dark photocycle), four-week-old female NMRI mice (Charles River, Sulzfeld, Germany) were subcutaneously infected with approximately 100 cercariae to establish the S. mansoni infection. In the S. mansoni infected mice the worms were allowed to develop for 7 weeks into the adult stage, before they were extracted from the mesenteric veins of the euthanized mice. The adult worms were placed into RPMI 1640 (Gibco, Waltham MA, USA) medium supplemented with 1 % penicillin/streptomycin mixture and 5 % iFCS at 37 °C and 5 % CO 2. The drug sensitivity assay was set up in a 24-well plate with two wells containing each two pairs of S. mansoni worms per compound and concentration.
# The final volume per well was 2 mL, containing the culture medium and the corresponding amount of drug dissolved in DMSO. The maximum concentration tested was 50 µM, corresponding to 0.5 % DMSO, to which all the other wells were adapted […]
# to, so that all test concentrations contained always the same amount of DMSO.
# Additionally, 2 wells with negative controls containing only DMSO and the culture medium were included. After an incubation period of 72 h at 37 °C and 5 % CO 2, the worms were microscopically evaluated. The drug effect was determined 24, 48 and 72 h post-exposure based on the phenotype of the adult worms, using a viability scale ranging from three referring to viable, motile worms with no change in their tegument to zero standing for the death of the worms.
# All described in vitro studies with mice involved, were conducted at the Swiss Tropical and Public Health Institute, first in Basel, later in Allschwil, and had the approval by the corresponding veterinary authorities of the Canton Basel-Stadt (permit no. 2070)
row,SMILES,"mean drug effect at 10 µM on adult S. mansoni, 24 h [%]"
1,O=C(Nc1ncc([N+](=O)[O-])s1)C12CC3CC(CC(C3)C1)C2 [Compound D1],55.18

# Same assay, conditions: 10 µM, 48 h, in percentage of DMSO control
row,SMILES,"mean drug effect at 10 µM on adult S. mansoni, 48 h [%]"
1,O=C(Nc1ncc([N+](=O)[O-])s1)C12CC3CC(CC(C3)C1)C2 [Compound D1],66.75

# Same assay, conditions: 10 µM, 72 h, in percentage of DMSO control
row,SMILES,"mean drug effect at 10 µM on adult S. mansoni, 72 h [%]"
1,O=C(Nc1ncc([N+](=O)[O-])s1)C12CC3CC(CC(C3)C1)C2 [Compound D1],65.76

# Same assay, conditions: 50 µM, 72 h incubation, normalized to DMSO control; active if ≥60%
row,SMILES,drug effect at 50 µM on adult S. mansoni
1,O=C1N(CCCCCC[c-]2cccc2)CCN1c1ncc([N+](=O)[O-])s1.[Fe+2].c1cc[cH-]c1 [Compound A4],No drug effect
2,O=C1N(Cc2ccccc2)CCN1c1ncc([N+](=O)[O-])s1 [Compound C2],No drug effect
3,Nc1ncc([N+](=O)[O-])s1 [Compound 2],No drug effect

# Same assay, conditions: 24 h drug exposure, 37 °C, 5% CO2; read-out: EC50 on adult S. mansoni, 24 h
row,SMILES,EC50 [µM]
1,O=C(Nc1ncc([N+](=O)[O-])s1)C12CC3CC(CC(C3)C1)C2 [Compound D1],9.8

# Same assay, conditions: 72 h drug exposure, 37 °C, 5% CO2; read-out: EC50 on adult S. mansoni, 72 h
row,SMILES,EC50 [µM]
1,O=C1N(CCCCCC[c-]2cccc2)CCN1c1ncc([N+](=O)[O-])s1.[Fe+2].c1cc[cH-]c1 [Compound A4],> 50

# Same assay, conditions: Schistosoma mansoni, 24 h, 24 h drug exposure, 37 °C, 5% CO2; read-out: EC50 on adult S. mansoni, 24 h
row,SMILES,EC50 [µM]
1,O=C(Nc1ncc([N+](=O)[O-])s1)C12CC3CC(CC(C3)C1)C2 [Compound D1],< 10

# Same assay, conditions: Schistosoma mansoni, 48 h, 48 h drug exposure, 37 °C, 5% CO2; read-out: EC50 on adult S. mansoni, 48 h
row,SMILES,EC50 [µM]
1,O=C(Nc1ncc([N+](=O)[O-])s1)C12CC3CC(CC(C3)C1)C2 [Compound D1],4.2

# Same assay, conditions: Schistosoma mansoni, 72 h, 72 h drug exposure, 37 °C, 5% CO2; read-out: EC50 on adult S. mansoni, 72 h
row,SMILES,EC50 [µM]
1,O=C1N(Cc2ccccc2)CCN1c1ncc([N+](=O)[O-])s1 [Compound C2],> 50
2,Nc1ncc([N+](=O)[O-])s1 [Compound 2],> 50
3,O=C(Nc1ncc([N+](=O)[O-])s1)C12CC3CC(CC(C3)C1)C2 [Compound D1],3.7

# Same assay, conditions: potency on adult S. mansoni relative to niridazole, EC50 at 72 h
row,SMILES,Fold activity of niridazole
1,O=C(Nc1ncc([N+](=O)[O-])s1)C12CC3CC(CC(C3)C1)C2 [Compound D1],1.5

# Test system: juvenile S. mansoni
# Assay: In vitro drug sensitivity assay on juvenile S. mansoni
# Type: cell-based, Schistosoma mansoni
# Conditions: Schistosoma mansoni; 72 h incubation, 37 °C, 5% CO2
# Protocol: Juvenile worms were gained through cultivation of NTS as previously described. 10 In short, NTS were obtained as described above, then directly after the mechanical transformation process the newly transformed schistosomula were placed in a special culturing medium. The culture medium consists of Panserin 401, w: L-Glutamine, serum free all-round medium (Pan Biotech, Aidenbach, Germany) supplemented with 20 % human serum and 500 U/mL penicillin, […] streptomycin (LuBioScience, Switzerland). 96-well transparent polystyrene flat bottom plates were used for the in vitro growth procedure, with 40 to 60 NTS per well in 100 µL culture medium. The bordering wells of the plate were filled solely with medium to counteract evaporation and to keep the humidity as steady as possible. The plates were incubated for 21 days at 5 % CO2 and at 37 °C, with regular medium changes every 3 to 4 days. After the 21 days culturing period, the schistosomulae developed into juveniles. For the drug sensitivity assay, juvenile worms were incubated over 72 h (5 % CO 2 and 37 °C) with the test compound in the same medium, as used for the culturing process. In a 96-well plate, 250 µL medium containing the test compound and six juvenile worms, ideally of both sexes were placed in each well. All compounds were tested twice independently at 50, 10, 5 and 1 µM in duplicates. The viability of the worms was evaluated microscopically after 24, 48 and 72 h of continuous drug exposure using the same phenotypic screening method as described before. […]
row,SMILES,EC50 [µM]
1,O=C(Nc1ncc([N+](=O)[O-])s1)C12CC3CC(CC(C3)C1)C2 [Compound D1],29.2

# Test system: S. mansoni newly transformed schistosomula (NTS)
# Assay: In vitro evaluation on newly transformed schistosomula (NTS)
# Type: cell-based, Schistosoma mansoni
# Conditions: 72 h incubation, 37 °C, 5% CO2
# Protocol: 2. Experimental section for biological experiments
# Stock solutions of the test compounds
# Stock solution of a concentration of 10 mM in pure DMSO (Sigma-Aldrich, Switzerland) were prepared of the 12 compounds, these stock solutions were used for all in vitro evaluations from activity tests in S. mansoni to the cytotoxic determinations in HUH7 hepatocyte-derived carcinoma cells, and in SH-SY5Y neuroblastoma cells.
# The solutions were thoroughly vortexed and sonicated to enable a good dissolution of the compounds and homogenous stock solutions.
# 2.1 In vitro evaluations in S. mansoni
# In vitro evaluation on newly transformed schistosomula (NTS)
# To obtain newly transformed schistosomula (NTS) the lifecycle of S. mansoni (strain originates from West Africa, Liberia) is maintained at the Swiss Tropical and Public Health Institute (Swiss TPH). As previously described, cercariae are collected from infected Biomphalaria glabrata snails and then mechanically transformed into NTS. 8 After HBSS (Gibco, Waltham MA, USA) washing to get rid of the detached tails, the NTS were kept overnight (min. 12 h, max. 24 h) in culture medium at 37 °C and 5 % CO2 to complete their transformation process, before the drug sensitivity assay was started. The drug assays were performed in the same culture medium consisting of medium M199 (Gibco, Waltham MA, USA) supplemented with 5 % v/v inactivated fetal calf serum (iFCS; Bioconcept AG, Allschwil, Switzerland), 1% antibiotics mixture developed by Mäser et al., 9 and 1 % penicillin 10,000 U/mL, and streptomycin 10 mg/mL solution (Sigma-Aldrich, Buchs, Switzerland). The assay was performed in a 96-well plate, with 30−40 NTS per well in a final volume of 250 μL. NTS incubated in culture medium containing 0.5 % DMSO but no drug served as negative controls.
# Microscopic evaluation was performed after 24, 48 and 72 h of incubation of the parasites at 37 °C and 5 % CO 2. Their overall viability was scored from 0 (death) to 3 (full viability) by a phenotypic screening method based on their motility, morphology, […]
# and granularity. […]
row,SMILES,EC50 [µM]
1,O=C1N(CCCCCC[c-]2cccc2)CCN1c1ncc([N+](=O)[O-])s1.[Fe+2].c1cc[cH-]c1 [Compound A4],> 50

# Same assay, conditions: Schistosoma mansoni; 72 h incubation, 37 °C, 5% CO2
row,SMILES,EC50 [µM]
1,O=C1N(Cc2ccccc2)CCN1c1ncc([N+](=O)[O-])s1 [Compound C2],> 50
2,Nc1ncc([N+](=O)[O-])s1 [Compound 2],> 50
3,O=C(Nc1ncc([N+](=O)[O-])s1)C12CC3CC(CC(C3)C1)C2 [Compound D1],7.9

# Same assay, conditions: highest tested concentration 50 µM
row,SMILES,drug effect at 50 µM on S. mansoni NTS
1,O=C1N(CCCCCC[c-]2cccc2)CCN1c1ncc([N+](=O)[O-])s1.[Fe+2].c1cc[cH-]c1 [Compound A4],No drug effect
2,O=C1N(Cc2ccccc2)CCN1c1ncc([N+](=O)[O-])s1 [Compound C2],No drug effect
3,Nc1ncc([N+](=O)[O-])s1 [Compound 2],No drug effect

# Test system: not listed separately
# Assay: Stability in DMSO-d6 monitored by 1H NMR
# Type: physicochemical
# Conditions: room temperature, 0, 6, 24, 30 and 48 h
# Protocol: Stability is a key factor that needs to be investigated in medicinal chemistry, particularly with metal complexes.^[ [44] ^] We randomly chose four niridazole derivatives that we dissolved in DMSO‐d 6 (A3, B1, C2, and D1). We then monitored by ^1H NMR spectroscopy any change in the spectra after 0, 6, 24, 30, and 48 h at room temperature. No shifted peaks or new peaks were found for all the tested compounds over 2 days, showing that they are stable in DMSO‐d 6. The NMR spectra of these studies can be found in the Supporting Information (Figure S32–S35).
# Figure S31 DEPT spectrum of C2
# 1H NMR spectra for stability
# Preparation of the control samples for 1H NMR analysis: Compounds B1, D1, A3 and
# C2 were dissolved in DMSO- d6. Compound A2 was dissolved in DMSO- d6 with D2O
# (4:1, v/v). NMR spectra were recorded in deuterated solvents on Bruker Avance-400
# in the room temperature for 0, 6, 24, 30 and 48 hours or 0, 3, 6 and 24 hours. […]
row,SMILES,stability in DMSO-d6 (1H NMR)
1,O=C1N(Cc2ccccc2)CCN1c1ncc([N+](=O)[O-])s1 [Compound C2],stable
2,O=C(Nc1ncc([N+](=O)[O-])s1)C12CC3CC(CC(C3)C1)C2 [Compound D1],stable

# Source: PMC12677843, “Multidisciplinary Preclinical Investigations on Ferrocenyl, Ruthenocenyl, and Benzyl Derivatives of Niridazole as New Drug Candidates against Schistosomiasis” (Chemmedchem, 2025)
